Data as given in patent US20090215758A1, “Use of 2,5-Disubstituted Thiazol-4-One Derivatives in Drugs” (Gruenenthal GmbH, priority 2005, published 2009).
Structures can show the parent of a compound that is named as a salt.

Key:
[1] = target: T1, vanilloid receptor 1 (VR1/TRPV1) of the rat species (Rattus norvegicus, UniProt O35433); assay: Functional study on vanilloid receptor 1, FLIPR Ca2+ assay in rat dorsal root ganglia cells; assay type: cell-based; settings: for inhibition at 10 µM / activation at 10 µM / VR1 (rat) (% inhibition compared to 10 μM CP) / VR1 (rat) (% stimulation compared to 10 μM CP): test compound 10 μM; for inhibition at 10 µM / VR1 (rat) (% inhibition compared to 10 μM CP): 5 min incubation, then 100 nM capsaicin, relative to maximum inhibition with 10 μM capsaicin; for inhibition at 10 µM: read-out: VR1 (rat) (% inhibition compared to 10 μM CP); for activation at 10 µM / VR1 (rat) (% stimulation compared to 10 μM CP): Ca2+ signal relative to 10 μM capsaicin (CP); for activation at 10 µM: read-out: VR1 (rat) (% stimulation compared to 10 μM CP); for EC50: unit inferred
T1 construct: The spinal column is removed from beheaded rats; from tissue; host or cells: primary cells from rat dorsal root ganglia (DRGs)
T1 sequence (O35433 whole entry): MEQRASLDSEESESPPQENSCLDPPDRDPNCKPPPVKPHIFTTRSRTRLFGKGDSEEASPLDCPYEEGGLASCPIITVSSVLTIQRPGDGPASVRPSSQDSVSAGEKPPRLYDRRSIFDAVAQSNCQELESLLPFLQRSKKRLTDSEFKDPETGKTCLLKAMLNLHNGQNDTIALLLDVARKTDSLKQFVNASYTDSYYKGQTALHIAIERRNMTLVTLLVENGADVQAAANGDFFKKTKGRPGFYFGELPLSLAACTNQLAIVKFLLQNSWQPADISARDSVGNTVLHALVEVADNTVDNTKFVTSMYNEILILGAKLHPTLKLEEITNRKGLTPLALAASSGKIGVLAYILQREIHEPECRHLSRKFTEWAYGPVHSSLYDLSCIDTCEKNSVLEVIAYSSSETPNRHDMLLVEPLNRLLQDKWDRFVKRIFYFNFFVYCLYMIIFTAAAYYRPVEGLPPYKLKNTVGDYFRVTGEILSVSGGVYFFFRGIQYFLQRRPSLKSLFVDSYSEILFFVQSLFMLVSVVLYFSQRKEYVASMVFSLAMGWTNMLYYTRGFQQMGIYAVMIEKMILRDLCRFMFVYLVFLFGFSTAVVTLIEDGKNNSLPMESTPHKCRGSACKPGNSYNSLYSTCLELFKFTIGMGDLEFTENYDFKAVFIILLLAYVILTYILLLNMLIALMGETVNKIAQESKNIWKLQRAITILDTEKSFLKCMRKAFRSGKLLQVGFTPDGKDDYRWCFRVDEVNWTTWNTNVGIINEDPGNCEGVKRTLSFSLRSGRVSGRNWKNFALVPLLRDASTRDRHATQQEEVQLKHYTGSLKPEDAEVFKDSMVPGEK

VR1 (human) = target: T2, VR1 (human) (Homo sapiens, UniProt Q8NER1); assay: Functional study on vanilloid receptor (VR1), FLIPR Ca2+ assay in CHO K1 cells stably transfected with the VR1 gene; assay type: cell-based; settings: for inhibition at 10 µM / activation at 10 µM: CHO-K1, test compound 10 μM; for inhibition at 10 µM / VR1 (human) (% inhibition compared to 10 μM CP): 5 min incubation, then 100 nM capsaicin, compared to 10 μM CP; for activation at 10 µM / VR1 (human) (% stimulation compared to 10 μM CP): Ca2+ signal relative to 10 μM capsaicin (CP); for activation at 10 µM: read-out: VR1 (human) (% stimulation compared to 10 μM CP); for EC50: unit inferred; for VR1 (human) (% inhibition compared to 10 μM CP) / VR1 (human) (% stimulation compared to 10 μM CP): test compound 10 μM
T2 construct: expressed in transfected cells; host or cells: CHO K1 cells (ECACC), stably transfected
T2 sequence (Q8NER1 whole entry): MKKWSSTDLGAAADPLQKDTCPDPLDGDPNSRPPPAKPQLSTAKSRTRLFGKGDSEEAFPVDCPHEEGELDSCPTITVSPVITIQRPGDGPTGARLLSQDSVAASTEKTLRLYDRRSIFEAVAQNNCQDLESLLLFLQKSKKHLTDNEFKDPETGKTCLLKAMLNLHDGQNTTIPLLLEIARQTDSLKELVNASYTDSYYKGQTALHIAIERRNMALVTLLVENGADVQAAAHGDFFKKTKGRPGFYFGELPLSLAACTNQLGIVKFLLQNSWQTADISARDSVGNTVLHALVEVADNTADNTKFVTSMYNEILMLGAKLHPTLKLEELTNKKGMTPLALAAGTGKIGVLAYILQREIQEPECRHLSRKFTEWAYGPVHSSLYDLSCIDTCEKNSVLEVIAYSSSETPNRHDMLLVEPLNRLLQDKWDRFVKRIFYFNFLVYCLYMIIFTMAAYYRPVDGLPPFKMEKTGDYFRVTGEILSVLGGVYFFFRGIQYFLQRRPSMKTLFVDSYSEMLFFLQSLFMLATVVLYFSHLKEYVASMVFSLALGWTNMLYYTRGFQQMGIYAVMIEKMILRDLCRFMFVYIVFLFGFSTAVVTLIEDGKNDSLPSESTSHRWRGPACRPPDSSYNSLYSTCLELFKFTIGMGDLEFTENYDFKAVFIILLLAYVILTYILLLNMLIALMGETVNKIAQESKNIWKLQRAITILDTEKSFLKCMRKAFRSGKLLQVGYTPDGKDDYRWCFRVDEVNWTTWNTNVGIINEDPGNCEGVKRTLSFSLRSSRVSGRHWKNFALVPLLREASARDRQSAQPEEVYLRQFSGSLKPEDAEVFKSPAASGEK

SMILES | inhibition at 10 µM [1] [%] | activation at 10 µM [1] [%] | inhibition at 10 µM (VR1 (human)) [%] | activation at 10 µM (VR1 (human)) [%] | EC50 [1] [µM] | EC50 (VR1 (human)) [µM] | VR1 (rat) (% inhibition compared to 10 μM CP) [1] [%] | VR1 (rat) (% stimulation compared to 10 μM CP) [1] [%] | VR1 (human) (% inhibition compared to 10 μM CP) (VR1 (human)) [%] | VR1 (human) (% stimulation compared to 10 μM CP) (VR1 (human)) [%]
O=C1N=C(N2CCOCC2)SC1=Cc1ccccn1 [Example 210, 2-morpholin-4-yl-5-pyridin-2-ylmethylenethiazol-4-one] | 23 | 2.22 | 3.03 | 1.83 |  |  |  |  |  | 
CCN(CC)C1=NC(=O)C(=Cc2cccc(C(F)(F)F)c2)S1 [Example 214, 2-diethylamino-5-(3-trifluoromethylbenzylidene)thiazol-4-one] | 50.1 | 13.7 | 56.7 | 6.08 |  |  |  |  |  | 
Cc1ccc(C=C2SC(N3CCCC3)=NC2=O)cc1 [Example 215, 5-(4-methylbenzylidene)-2-pyrrolidin-1-ylthiazol-4-one] | 4.47 | 2.14 | 49.8 | 3.64 |  |  |  |  |  | 
COCCNC1=NC(=O)C(=Cc2ccc(C(C)(C)C)cc2)S1 [Example 216, 5-(4-tert-butylbenzylidene)-2-(2-methoxyethylamino)thiazol-4-one hydrobromide] | 22.1 | 1.24 | 51.1 | 2.08 | 1.5 | 5.4 |  |  |  | 

Further lines, results first:

inhibition at 10 µM [1] [%] | activation at 10 µM [1] [%] | inhibition at 10 µM (VR1 (human)) [%] | activation at 10 µM (VR1 (human)) [%] | EC50 [1] [µM] | EC50 (VR1 (human)) [µM] | VR1 (rat) (% inhibition compared to 10 μM CP) [1] [%] | VR1 (rat) (% stimulation compared to 10 μM CP) [1] [%] | VR1 (human) (% inhibition compared to 10 μM CP) (VR1 (human)) [%] | VR1 (human) (% stimulation compared to 10 μM CP) (VR1 (human)) [%] | SMILES
 |  |  |  |  |  | 78.83 | 55.76 | 12.88 | 17.91 | Cc1ccc(C=C2SC(N3CCOCC3)=NC2=O)cc1 [Example 218, 5-(4-methylbenzylidene)-2-morpholin-4-ylthiazol-4-one]
 |  |  |  |  |  | 98.64 | 102.46 | 79.67 | 41.92 | CC(C)(C)c1ccc(C=C2SC(N3CCOCC3)=NC2=O)cc1 [Example 222, 5-(4-tert-butylbenzylidene)-2-morpholin-4-ylthiazol-4-one]
9.3 | 102 | 57.7 | 70.5 |  |  |  |  |  |  | CCN(CC)c1ccc(C=C2SC(N3CCOCC3)=NC2=O)cc1 [Example 223, 5-(4-diethylaminobenzylidene)-2-morpholin-4-ylthiazol-4-one]
4.84 | 16 | 0.61 | 12.2 | 14.3 | 26.5 |  |  |  |  | COc1ccc(C=C2SC(N3CCOCC3)=NC2=O)cc1 [Example 228, 5-(4-methoxybenzylidene)-2-morpholin-4-ylthiazol-4-one]
96.2 | 80.4 | 43.8 | 29.2 |  |  |  |  |  |  | O=C1N=C(N2CCOCC2)SC1=Cc1ccc(Br)cc1 [Example 232, 5-(4-bromobenzylidene)-2-morpholin-4-ylthiazol-4-one]
98.1 | 57.9 | 27.8 | 46.1 |  |  |  |  |  |  | O=C1N=C(N2CCOCC2)SC1=Cc1ccc(OS(=O)(=O)c2ccccc2)cc1 [Example 234, benzenesulfonic acid 4-(2-morpholin-4-yl-4-oxo-4H-thiazol-5-ylidenemethyl)phenyl ester]
13.7 | 123 | 44.5 | 73.9 |  |  |  |  |  |  | CN(C)c1ccc(C=C2SC(N3CCOCC3)=NC2=O)cc1 [Example 235, 5-(4-dimethylaminobenzylidene)-2-morpholin-4-ylthiazol-4-one]
